Measured values taken from patent US11007136B2, “Cosmetic composition for wrinkle reduction containing gypenoside isolated from Gynostemma pentaphyllum” (CELLTRION INC., priority 2015, dated 2021).

How the values were obtained:
[1] = Titer stability of UL4 and UL5 within formulations (HPLC); type: physicochemical; conditions: for content stability Result: over 12 weeks
Procedure: As shown in Formulation Examples 1, 2 and 3, cosmetic compositions of a high viscosity emulsified formulation, a low viscosity emulsified formulation and a solubilized formulation, respectively comprising 0.2% of the Gynostemma pentaphyllum gypenoside fraction, were stored under a condition of 4 CC, 30 CC, 45° C. and sunlight for 12 weeks and changes with passage of time (% compared to an initial content) in the gypenosides UL4 and UL5, which were index ingredients for quantification out of the Gynostemma pentaphyllum gypenoside ingredients, were observed through an HPLC analysis, and results thereof were indicated in Tables 10 to 12.

[2] = system: human dermal fibroblast neonatal; assay: Cytotoxicity test (MTT); type: cell-based; conditions: for HDFn Viability: 48 h, % control
Procedure: A human dermal fibroblast neonatal (Cascade Co.) was inoculated into a 24-well microplate (5×10^4 cells/well) by using a medium, in which Dulbeco's Modified Eagle's Medium (DMEM) was supplemented with 10% fetal bovine serum, thus being cultured under a condition of 37° C. and 5% CO2 for 24 hours. Then, the same was replaced with a serum-free DMEM medium and cultured for 24 hours, thus treating the Gynostemma pentaphyllum gypenoside fraction obtained from the Example 1 and the gypenosides UL4 and UL5 isolated therefrom, respectively. After being cultured for 48 hours, an MTT solution was added thereto, thus being cultured for four hours. The medium was removed therefrom and DMSO was added thereto, thus dissolving an MTT formazan. The MTT formazan dissolved in the DMSO was taken out and an optical density thereof was measured at 570 nm, thus being compared to a group without sample treatment and indicated as % control.

[3] = system: human dermal fibroblast neonatal; assay: Procollagen production (collagen synthesis promotion), ELISA kit; type: cell-based; conditions: 1 and 5 μg/ml, 48 h, versus positive control NAG at the same concentration, FIG. 3
Procedure: A human dermal fibroblast neonatal (Cascade Co.) was inoculated into a 24-well microplate (5×10^4 cells/well) by using a medium, in which Dulbeco's Modified Eagle's Medium (DMEM) was supplemented with 10% fetal bovine serum, thus being cultured under a condition of 37° C. and 5% CO2 for 24 hours. Then, the same was replaced with a serum-free DMEM medium and cultured for 24 hours, after which an appropriate amount of a sample fluid was treated so that a final concentration of each test compound could reach 1 μg/ml and 5 μg/ml. After being cultured for 48 hours, a cell culture fluid was collected and then an amount of procollagen was measured by using a collagen measurement kit of Takara Company (Takara Shuzo Co., Ltd.). First of all, the collected cell culture fluid was injected into a 96-well microplate, to which a primary collagen antibody was evenly applied, such that an antigen-antibody reaction could occur at 37° C. for three hours. The cell culture fluid was removed from the well and washed four times with PBS. A color causing material was injected into each well, after which a reaction took place at a room temperature for 15 minutes, such that 1 N sulfuric acid solution was added thereto, thus stopping the reaction. An optical density was measured at a wavelength of 450 nm by means of a spectrophotometer. […]

- content, % compared to an initial content ([1]; High viscosity emulsified formulation, 4° C., 1 week): 101.9%
- content, % compared to an initial content ([1]; High viscosity emulsified formulation, 4° C., 2 weeks): 95.9%
- content, % compared to an initial content ([1]; High viscosity emulsified formulation, 4° C., 4 weeks): 102%
- content, % compared to an initial content ([1]; High viscosity emulsified formulation, 4° C., 8 weeks): 101.4%
- content, % compared to an initial content ([1]; High viscosity emulsified formulation, 4° C., 12 weeks): 104.1%
- content stability Result ([1]; High viscosity emulsified formulation, 4° C.): Stable
- content, % compared to an initial content ([1]; High viscosity emulsified formulation, 30° C., 1 week): 105.2%
- content, % compared to an initial content ([1]; High viscosity emulsified formulation, 30° C., 2 weeks): 103.1%
- content, % compared to an initial content ([1]; High viscosity emulsified formulation, 30° C., 4 weeks): 104.4%
- content, % compared to an initial content ([1]; High viscosity emulsified formulation, 30° C., 8 weeks): 105.7%
- content, % compared to an initial content ([1]; High viscosity emulsified formulation, 30° C., 12 weeks): 108.2%
- content stability Result ([1]; High viscosity emulsified formulation, 30° C.): Stable
- content, % compared to an initial content ([1]; High viscosity emulsified formulation, 45° C., 1 week): 105.3%
- content, % compared to an initial content ([1]; High viscosity emulsified formulation, 45° C., 2 weeks): 108.2%
- content, % compared to an initial content ([1]; High viscosity emulsified formulation, 45° C., 4 weeks): 107.6%
- content, % compared to an initial content ([1]; High viscosity emulsified formulation, 45° C., 8 weeks): 108.1%
- content, % compared to an initial content ([1]; High viscosity emulsified formulation, 45° C., 12 weeks): 107.1%
- content stability Result ([1]; High viscosity emulsified formulation, 45° C.): Stable
- content, % compared to an initial content ([1]; High viscosity emulsified formulation, Sunlight, 1 week): 102.4%
- content, % compared to an initial content ([1]; High viscosity emulsified formulation, Sunlight, 2 weeks): 99.8%
- content, % compared to an initial content ([1]; High viscosity emulsified formulation, Sunlight, 4 weeks): 101.2%
- content, % compared to an initial content ([1]; High viscosity emulsified formulation, Sunlight, 8 weeks): 99.4%
- content, % compared to an initial content ([1]; High viscosity emulsified formulation, Sunlight, 12 weeks): 103.6%
- content stability Result ([1]; High viscosity emulsified formulation, Sunlight): Stable
- content, % compared to an initial content ([1]; Low viscosity emulsified formulation, 4° C., 1 week): 100.1%
- content, % compared to an initial content ([1]; Low viscosity emulsified formulation, 4° C., 2 weeks): 102.4%
- content, % compared to an initial content ([1]; Low viscosity emulsified formulation, 4° C., 4 weeks): 101.2%
- content, % compared to an initial content ([1]; Low viscosity emulsified formulation, 4° C., 8 weeks): 94.9%
- content, % compared to an initial content ([1]; Low viscosity emulsified formulation, 4° C., 12 weeks): 94.1%
- content stability Result ([1]; Low viscosity emulsified formulation, 4° C.): Stable
- content, % compared to an initial content ([1]; Low viscosity emulsified formulation, 30° C., 1 week): 105.0%
- content, % compared to an initial content ([1]; Low viscosity emulsified formulation, 30° C., 2 weeks): 101.8%
- content, % compared to an initial content ([1]; Low viscosity emulsified formulation, 30° C., 4 weeks): 101.6%
- content, % compared to an initial content ([1]; Low viscosity emulsified formulation, 30° C., 8 weeks): 104.1%
- content, % compared to an initial content ([1]; Low viscosity emulsified formulation, 30° C., 12 weeks): 105.2%
- content stability Result ([1]; Low viscosity emulsified formulation, 30° C.): Stable
- content, % compared to an initial content ([1]; Low viscosity emulsified formulation, 45° C., 1 week): 101.9%
- content, % compared to an initial content ([1]; Low viscosity emulsified formulation, 45° C., 2 weeks): 106.2%
- content, % compared to an initial content ([1]; Low viscosity emulsified formulation, 45° C., 4 weeks): 105.9%
- content, % compared to an initial content ([1]; Low viscosity emulsified formulation, 45° C., 8 weeks): 95.6%
- content, % compared to an initial content ([1]; Low viscosity emulsified formulation, 45° C., 12 weeks): 99.3%
- content stability Result ([1]; Low viscosity emulsified formulation, 45° C.): Stable
- content, % compared to an initial content ([1]; Low viscosity emulsified formulation, Sunlight, 1 week): 96.3%
- content, % compared to an initial content ([1]; Low viscosity emulsified formulation, Sunlight, 2 weeks): 99.5%
- content, % compared to an initial content ([1]; Low viscosity emulsified formulation, Sunlight, 4 weeks): 100.5%
- content, % compared to an initial content ([1]; Low viscosity emulsified formulation, Sunlight, 8 weeks): 99.8%
- content, % compared to an initial content ([1]; Low viscosity emulsified formulation, Sunlight, 12 weeks): 102%
- content stability Result ([1]; Low viscosity emulsified formulation, Sunlight): Stable
- content, % compared to an initial content ([1]; Solubilized formulation, 4° C., 1 week): 98.8%
- content, % compared to an initial content ([1]; Solubilized formulation, 4° C., 2 weeks): 91.9%
- content, % compared to an initial content ([1]; Solubilized formulation, 4° C., 4 weeks): 98.7%
- content, % compared to an initial content ([1]; Solubilized formulation, 4° C., 8 weeks): 97.6%
- content, % compared to an initial content ([1]; Solubilized formulation, 4° C., 12 weeks): 99.5%
- content stability Result ([1]; Solubilized formulation, 4° C.): Stable
- content, % compared to an initial content ([1]; Solubilized formulation, 30° C., 1 week): 100.0%
- content, % compared to an initial content ([1]; Solubilized formulation, 30° C., 2 weeks): 103.2%
- content, % compared to an initial content ([1]; Solubilized formulation, 30° C., 4 weeks): 102.7%
- content, % compared to an initial content ([1]; Solubilized formulation, 30° C., 8 weeks): 98.5%
- content, % compared to an initial content ([1]; Solubilized formulation, 30° C., 12 weeks): 104.5%
- content stability Result ([1]; Solubilized formulation, 30° C.): Stable
- content, % compared to an initial content ([1]; Solubilized formulation, 45° C., 1 week): 102.8%
- content, % compared to an initial content ([1]; Solubilized formulation, 45° C., 2 weeks): 101.6%
- content, % compared to an initial content ([1]; Solubilized formulation, 45° C., 4 weeks): 94.2%
- content, % compared to an initial content ([1]; Solubilized formulation, 45° C., 8 weeks): 97.2%
- content, % compared to an initial content ([1]; Solubilized formulation, 45° C., 12 weeks): 94.9%
- content stability Result ([1]; Solubilized formulation, 45° C.): Stable
- content, % compared to an initial content ([1]; Solubilized formulation, Sunlight, 1 week): 98.8%
- content, % compared to an initial content ([1]; Solubilized formulation, Sunlight, 2 weeks): 94.8%
- content, % compared to an initial content ([1]; Solubilized formulation, Sunlight, 4 weeks): 98.4%
- content, % compared to an initial content ([1]; Solubilized formulation, Sunlight, 8 weeks): 98%
- content, % compared to an initial content ([1]; Solubilized formulation, Sunlight, 12 weeks): 94.6%
- content stability Result ([1]; Solubilized formulation, Sunlight): Stable
SMILES: CC(C)=CC1C[C@](O)([C@H]2CC[C@]3(C)[C@@H]2CC[C@@H]2[C@@]4(C=O)CC[C@H](O[C@@H]5OC[C@H](O)[C@H](O[C@@H]6OC[C@@H](O)[C@H](O)[C@H]6O)[C@H]5O[C@@H]5O[C@@H](C)[C@H](O)[C@@H](O)[C@H]5O)C(C)(C)[C@@H]4CC[C@]23C)[C@H](O)O1 (stereo partly drawn) [Gypenoside UL4, (23ξ)-3β,20β,21α-trihydroxy-19-oxo-21,23-epoxy-dammar-24-ene-3-O-[α-L-rhamnopyranosyl (1→2)][β-D-xylopyranosyl (1→3)]-α-L-arabinopyranoside]
- HDFn Viability ([2]; 5 ug/ml): 98%
- HDFn Viability ([2]; 10 ug/ml): 100%
- HDFn Viability ([2]; 50 ug/ml): 106%
- cytotoxicity ([2]; at concentrations promoting procollagen synthesis): did not show any cytotoxicity
- procollagen-producing effect compared with NAG [3]: the same or larger amount of procollagen
